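Dose response: 5 concentrations. Exposure: 48 h. Format: 96-well plates. Endpoint: linear interpolation; highest concentration if not reached. The concentration for 50% growth inhibition is given as GI50.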 Calls of active or inactive are those of the source. Rule as the data show it: active = GI50 up to about 1.1 µM and inactive = higher.
Columns and labels:
Assay in all cases: NCI tumour cell line growth inhibition, 48 h
CAKI-1 = test system: CAKI-1
COLO 205 = test system: COLO 205
HCC 2998 = test system: HCC 2998
HCT-15 = test system: HCT-15
HL-60 = test system: HL-60
IGROV-1 = test system: IGROV-1
NCI-H226 = test system: NCI-H226
NCI-H460 = test system: NCI-H460
NCI-H522 = test system: NCI-H522
OVCAR-3 = test system: OVCAR-3
OVCAR-5 = test system: OVCAR-5
RXF 393 = test system: RXF 393
SF-295 = test system: SF-295
SNB-19 = test system: SNB-19
SNB-75 = test system: SNB-75
U-251 = test system: U-251
MCF7 = test system: MCF7
MDA-MB-435 = test system: MDA-MB-435
MDA-N = test system: MDA-N
MDA-MB-231 = test system: MDA-MB-231

Row | SMILES | GI50 (CAKI-1) | GI50 (COLO 205) | GI50 (HCC 2998) | GI50 (HCT-15) | GI50 (HL-60) | GI50 (IGROV-1) | GI50 (NCI-H226) | GI50 (NCI-H460) | GI50 (NCI-H522) | GI50 (OVCAR-3) | GI50 (OVCAR-5) | GI50 (RXF 393) | GI50 (SF-295) | GI50 (SNB-19) | GI50 (SNB-75) | GI50 (U-251) | GI50 (MCF7) | GI50 (MDA-MB-435) | GI50 (MDA-N) | GI50 (MDA-MB-231)
1 | OCCN1CCN2C=C(C3CCCC4N(CCO)CCN34)CCC21 (stereo unspecified) | 48 µM (inactive) | > 65.2 µM (inactive) | > 100 µM (inactive) | 27.9 µM | 5.28 µM (inactive) | 76 µM (inactive) | > 91 µM (inactive) | > 100 µM (inactive) | > 44 µM (inactive) | 35.4 µM (inactive) | > 100 µM (inactive) | 20.3 µM (inactive) | 98.4 µM (inactive) | > 100 µM (inactive) | 34.8 µM (inactive) | 41.4 µM (inactive) |  |  |  | 
2 | Cc1cc(C)c(N[S+]([O-])c2cccc([N+](=O)[O-])c2)c(C)c1 (stereo unspecified) |  | > 100 µM (inactive) |  | > 100 µM | > 100 µM (inactive) |  | > 100 µM (inactive) | > 100 µM (inactive) |  | > 100 µM (inactive) | > 100 µM (inactive) | > 100 µM (inactive) | > 100 µM (inactive) | > 100 µM (inactive) |  | > 100 µM (inactive) | > 100 µM (inactive) | > 100 µM (inactive) |  | 
3 | C=C(C)CCOC(c1ccccc1)(c1ccccc1)c1ccccc1 | 70.6 µM (inactive) | 55.1 µM (inactive) | 25.6 µM (inactive) | 47.3 µM | 31.5 µM (inactive) | > 100 µM (inactive) | 26.3 µM (inactive) | 29.1 µM (inactive) | 18.9 µM (inactive) | 64.4 µM (inactive) | > 100 µM (inactive) | 18.5 µM (inactive) | 37.4 µM (inactive) | > 100 µM (inactive) | 68.7 µM (inactive) | 50 µM (inactive) |  |  |  | 
4 | Cc1ccc(S(=O)(=O)N2CCC3(C(/C=C/c4ccccc4)=Nc4ccccc43)C2c2ccccc2)cc1 (stereo unspecified) | > 100 µM (inactive) | > 100 µM (inactive) | > 100 µM (inactive) | > 100 µM | > 100 µM (inactive) | 1.41 µM (inactive) | 37.9 µM (inactive) | > 100 µM (inactive) | > 100 µM (inactive) | > 100 µM (inactive) | > 100 µM (inactive) | > 100 µM (inactive) | > 100 µM (inactive) | > 100 µM (inactive) | 87.3 µM (inactive) | > 100 µM (inactive) |  |  |  | 
5 | Cc1cccc(Nc2cn(COCc3ccccc3)c(=O)[nH]c2=O)c1 | > 100 µM (inactive) | 84.1 µM (inactive) | > 100 µM (inactive) | > 100 µM | > 100 µM (inactive) | 29.4 µM (inactive) |  | > 100 µM (inactive) | 10.2 µM (inactive) | > 100 µM (inactive) | > 100 µM (inactive) | 56 µM (inactive) | 72.1 µM (inactive) | > 100 µM (inactive) |  | > 100 µM (inactive) | 72.6 µM (inactive) | > 100 µM (inactive) | > 100 µM (inactive) | 
6 | CC(=O)OC[C@]1(O)CC[C@@]23CC1C[C@@H]2CCC1C(C)(C)CCC[C@@]13C (stereo partly specified) | 18.2 µM (inactive) | 17.8 µM (inactive) | 17.4 µM (inactive) | 15.8 µM | 4.95 µM (inactive) | 19.7 µM (inactive) | 15.8 µM (inactive) | 14.7 µM (inactive) | 2.64 µM (inactive) | 17.1 µM (inactive) | 11.3 µM (inactive) | 7.11 µM (inactive) | 17.6 µM (inactive) | 14.5 µM (inactive) | 16.1 µM (inactive) | 14 µM (inactive) |  |  |  | 
7 | CCCCCCCCCC[C@@H](O)[C@H]1CC[C@@H]([C@H]2CC[C@H]([C@H](O)CCCCCCCCCC[C@@H]3CC(CC(C)=O)C(=O)O3)O2)O1 (stereo partly specified) | 31 µM (inactive) | 1.52 µM (inactive) | 19.1 µM (inactive) | 5.12 µM |  | 8.28 µM (inactive) | 1 µM (active) | 0.147 µM (active) | 12.8 µM (inactive) | 3.75 µM (inactive) | 48.1 µM (inactive) | 4.99 µM (inactive) | 1.77 µM (inactive) | 2.9 µM (inactive) | 1.42 µM (inactive) | 2.65 µM (inactive) | 1.31 µM (inactive) | 32.4 µM (inactive) |  | 3.64 µM (inactive)
8 | Sc1nn2c(Cc3ccccc3)nnc2s1 | > 100 µM (inactive) | > 100 µM (inactive) | > 100 µM (inactive) | > 100 µM | > 100 µM (inactive) | > 100 µM (inactive) | 89.9 µM (inactive) | > 100 µM (inactive) | > 100 µM (inactive) | > 100 µM (inactive) | > 100 µM (inactive) | > 100 µM (inactive) | > 100 µM (inactive) | > 100 µM (inactive) |  | > 100 µM (inactive) | > 100 µM (inactive) | > 100 µM (inactive) |  | > 100 µM (inactive)
9 | CCN(CC)CCCOc1cc2c(cc1OC)C(=O)N1CCC[C@H]1C=N2 | 18.2 µM (inactive) | 19.8 µM (inactive) |  | 41.5 µM | 30.1 µM (inactive) |  | 24.4 µM (inactive) | 97.7 µM (inactive) | 11.4 µM (inactive) | 24.2 µM (inactive) | 49.8 µM (inactive) | 25.8 µM (inactive) | 28.8 µM (inactive) | 49.1 µM (inactive) |  | 26.4 µM (inactive) | 43 µM (inactive) | 22.5 µM (inactive) |  | 24.2 µM (inactive)

Source: ChEMBL document CHEMBL1201862, “PubChem BioAssay data set” (2004)
